The conditions of series [1]: Liquid.
Series [2] in a line: refractive index (Na D-line) (dimensionless). To be noted: 298.15 K; 101.33 kPa; Liquid; Standard Abbe refractometry.

Numbers after ± are expanded uncertainties.

Turning to `O=C1CCCC1` [cyclopentanone], the vapor or sublimation pressure (commonly the pressure of vapour in equilibrium with the condensed phase) in series [1] (291.95 K) was determined as 1.16 ± 0.1 kPa; in series [1] (295.15 K) it was 1.5 ± 0.1 kPa; in series [1] (298.15 K), 1.61 ± 0.33 kPa; in series [1] (299.35 K), 1.65 ± 0.11 kPa; in series [1] (303.15 K), 2.03 ± 0.11 kPa; in series [1] (307.05 K) it was 2.6 ± 0.12 kPa. The “vapor or sublimation pressure” value stood at 2.68 ± 0.38 kPa in series [1] (308.15 K), 3 ± 0.13 kPa in series [1] (310.45 K), 3.41 ± 0.13 kPa in series [1] (313.15 K) and 4.03 ± 0.14 kPa in series [1] (316.75 K). In addition, the refractive index (commonly the speed of light in vacuum divided by its phase velocity in the sample) in series [2] was found to be 1.4347 ± 0.0007.
In the case of `CC(Cl)(Cl)Cl` [1,1,1-trichloroethane], the “vapor or sublimation pressure” value in series [1] (298.15 K) worked out at 16.69 ± 0.35 kPa; in series [1] (303.15 K) it was 20.34 ± 0.41 kPa; in series [1] (308.15 K) it was 25.22 ± 0.49 kPa; in series [1] (313.15 K), 30.78 ± 0.57 kPa. In addition, the refractive index in series [2] is 1.4354 ± 0.0007.
With `ClCCCl` [1,2-dichloroethane], the “vapor or sublimation pressure” value in series [1] (292.85 K) is 8.09 ± 0.21 kPa; in series [1] (295.55 K), 9.23 ± 0.23 kPa; in series [1] (298.15 K), 10.47 ± 0.25 kPa; in series [1] (302.35 K) it was 12.81 ± 0.29 kPa; in series [1] (303.15 K), 13.34 ± 0.91 kPa; in series [1] (306.25 K), 15.46 ± 0.33 kPa. Further, the “vapor or sublimation pressure” value stood at 16.77 ± 1.1 kPa in series [1] (308.15 K), 18.17 ± 0.37 kPa in series [1] (309.95 K), 20.88 ± 1.3 kPa in series [1] (313.15 K) and 21.29 ± 0.42 kPa in series [1] (313.65 K). For the same compound, in series [2], the refractive index was 1.4421 ± 0.0007.

The record behind these values is the NIST ThermoML archive (doi:10.1016/j.jct.2005.07.016).
